Publication PMC4265309 (Chemical biology & drug design, 2014)

What was measured:
[1] = tested on: CHO-K1 cells; experiment: Peptide induced cell lysis; assay type: cell-based; conditions: CHO-K1, normal cell culture conditions, no peptide (Figures 2 and 4)
[2] = pH sensitivity of lytic activity; assay type: biochemical; conditions: ratio calculated from the average IC50 values of a peptide at pH=7.4 and pH=5.5
[3] = Peptide circular dichroism; assay type: physicochemical; conditions: secondary structure by CD, 25 °C
[4] = Peptide self-assembly and aggregation in solution; assay type: physicochemical
[5] = tested on: A549 and CCD-13Lu cells
[6] = tested on: CHO-K1 cells; experiment: Measurement of cell surface pH, CHO-K1; assay type: cell-based; conditions: from pH=8.4 to pH=6.90, medium pH=7.4

Row | Compound | Structure pH=6.5 [3] | Structure pH=7.4 [3] | pH sensitivity [2] | other results
1 | CO/C1=C\C(C)=C\[C@@H](C)[C@@H](O)[C@@H](C)C/C(C)=C/C=C/[C@H](OC)[C@@H]([C@@H](C)[C@@H](O)[C@H](C)[C@@]2(O)C[C@@H](O)[C@H](C)[C@@H](C(C)C)O2)OC1=O [Bafilomycin A1] | – | – | – | Effect on cell viability [1]: very limited effects on cell viability
2 | FLGALFRALSRLL [CL-1] | Coil | Coil | 1.2 | –
3 | FLGALFRALSHLL [CL-7] | Coil | α-helix | 2.2 | Aggregation at physiological pH ([4]; 40 µM peptide, 1,8-ANS 20 µM, excitation 369 nm, SEM at pH=7.4): underwent self-assembly at physiological pH; Stability of peptide aggregates under acidic conditions ([4]; 1,8-ANS 20 µM, 40 µM peptide, particle analysis at 80 µM): unstable and dissolved under acidic conditions
4 | FLGALFKALSKLL [PTP-7] | – | – | – | Cytotoxicity to A549 relative to CCD-13Lu [5]: equally active to both cells
5 | Nc1ncnc2c1nc(Sc1ccc(Cl)cc1)n2[C@@H]1O[C@@H]2COP(=O)(O)O[C@H]2[C@H]1O [Peptide 8-CPT-cAMP, 8-CPT-cAMP] | – | – | – | Effect on cell viability [1]: no effects on the viability; Time to reduction of cell surface pH [6]: ≤ 30 minutes

The next lines start with results.

Row | Structure pH=6.5 [3] | Structure pH=7.4 [3] | Compound | pH sensitivity [2] | other results
6 | Coil | α-helix | WLGALFHALSKLL [CL-9] | 3.0 | –
7 | Coil | α-helix | WLGALFKALSHLLGHHPH [CL-22] | 13.8 | –
8 | Coil | α-helix | WLGALFKALSHLL [CL-10] | 2.5 | –
